Experimental data taken from patent US20060069132A1, “Azolecarboxamide herbicides” (priority 2004, published 2006).

Assays:
giant foxtail = test: Test A pre-/postemergence herbicide test; format: in vivo, Setaria faberi
Procedure, shortened: (§1)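 Pre: seeded sandy loam, directed soil spray, compound in non-phytotoxic solvent + surfactant. Post: 1–2-leaf plants (2–10 cm), sprayed to runoff. Greenhouse ~10 d; visual injury vs untreated, 0–100 scale.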

morningglory [1] = test: Test A pre-/postemergence herbicide test; format: in vivo, Ipomoea spp.
Procedure, shortened: as §1

rice = test: Test B pre-/postemergence herbicide test; format: in vivo, Oryza sativa; details: preemergence
Procedure, shortened: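 Pre: seeds sown, then sprayed. Post: 1–4-leaf plants (2–18 cm) sprayed at the same time. Paddy: flooded, treated at 2-leaf stage. Formulation: non-phytotoxic solvent with surfactant. Greenhouse 13–15 days; visual 0–100 score relative to controls.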

johnsongrass = test: Test C pre-/postemergence herbicide test; format: in vivo, Sorghum halepense; details: for Plant response rating, Johnsongrass / Plant response rating (0 = no effect, 100 = complete control), Johnsongrass: preemergence; for Johnsongrass plant response rating: Preemergence, scale 0 to 100, 0 no effect, 100 complete control
Procedure, shortened: (§2)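 Visual injury scores run from 0 (no effect) to 100 (complete control), assessed relative to untreated controls 12 to 14 days after treatment in the greenhouse. Chemicals were formulated in a non-phytotoxic solvent mixture with surfactant and applied to soil after planting or to emerged plants at the 1- to 4-leaf stage.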

lambsquarters = test: Test C pre-/postemergence herbicide test; format: in vivo, Chenopodium album; details: for Plant response rating, Lambsquarters / Plant response rating (0 = no effect, 100 = complete control), Lambsquarters: preemergence; for Lambsquarters plant response rating: Preemergence, scale 0 to 100, 0 no effect, 100 complete control
Procedure, shortened: as §2

morningglory [2] = test: Test C pre-/postemergence herbicide test; format: in vivo, Ipomoea coccinea; parameters: key to Plant response rating, Morningglory: 0 = no effect, 100 = complete control; details: for Plant response rating, Morningglory / Plant response rating (0 = no effect, 100 = complete control), Morningglory: preemergence; for Morningglory plant response rating: Preemergence, scale 0 to 100, 0 no effect, 100 complete control
Procedure, shortened: as §2

velvetleaf = test: Test C pre-/postemergence herbicide test; format: in vivo, Abutilon theophrasti; details: for Velvetleaf plant response rating: Preemergence, scale 0 to 100, 0 no effect, 100 complete control
Procedure, shortened: as §2

[3] = tested on: smallflower umbrella sedge; test: Test C flooded paddy test; format: in vivo, Cyperus difformis; details: for Plant response rating, Sedge, Umbrella: 500 g ai/ha, visual rating after 12 to 14 days
barnyardgrass = test: Test C flooded paddy test; format: in vivo, Echinochloa crus-galli; details: for Plant response rating, Barnyardgrass: 500 g ai/ha, visual rating after 12 to 14 days
Procedure, shortened: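 Scoring by eye, 12–14 days post-treatment, greenhouse-held plants vs. controls; 0 no effect, 100 complete control. Sprayed at 1–4 leaves (2–18 cm); paddy barnyardgrass at 2 leaves, flooded.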

[4] = Postemergence, 500 g ai/ha, 0 to 100 scale, 0 no effect, 100 complete control
[5] = Postemergence, 2000 g ai/ha, 0 to 100 scale, 0 no effect, 100 complete control
[6] = Preemergence, 500 g ai/ha, visual rating, 0 to 100 scale (0 no effect, 100 complete control)
[7] = Preemergence, 2000 g ai/ha, visual rating, 0 to 100 scale (0 no effect, 100 complete control)
[8] = 125 g ai/ha, 0 to 100 scale, 0 is no effect, 100 is complete control
[9] = 125 g ai/ha, scale 0 (no effect) to 100 (complete control), visual, 12 to 14 days
[10] = 62 g ai/ha, preemergence, scale 0 to 100
[11] = 125 g ai/ha, scale 0 (no effect) to 100 (complete control), visual, 12 to 14 days, preemergence
[12] = 125 g ai/ha, 0 = no effect, 100 = complete control
[13] = 500 g ai/ha, visual rating, 0 = no effect, 100 = complete control
[14] = 500 g ai/ha, scale 0 to 100 (0 no effect, 100 complete control), visual, 12 to 14 days
[15] = 250 g ai/ha, scale 0-100, preemergence
[16] = 500 g ai/ha, scale 0 to 100 (0 no effect, 100 complete control), visual, 12 to 14 days, preemergence
[17] = 62 g ai/ha, scale 0 to 100 (0 no effect, 100 complete control)
[18] = 125 g ai/ha, scale 0 to 100 (0 no effect, 100 complete control)
[19] = 250 g ai/ha, scale of 0 to 100, 0 is no effect, 100 is complete control
[20] = scale 0 to 100 (0 no effect, 100 complete control)
[21] = 250 g ai/ha, scale 0 to 100 (0 no effect, 100 complete control), visual, 12 to 14 days
[22] = 125 g ai/ha, scale of 0 to 100, 0 is no effect, 100 is complete control
[23] = preemergence, 500 g ai/ha, visual injury, 0 to 100 scale (0 no effect, 100 complete control)

Structure (SMILES)	Foxtail, Giant plant response rating (giant foxtail; [4])	Plant response rating, Foxtail, Giant (giant foxtail; [5])	Foxtail, Giant plant response rating (giant foxtail; [7])	Morningglory plant response rating (morningglory [1]; [4])	Plant response rating, Morningglory (morningglory [1]; [5])	Morningglory plant response rating (morningglory [1]; [7])	Plant response rating, Johnsongrass (johnsongrass; 62 g ai/ha, scale 0 to 100)	Plant response rating, Johnsongrass (johnsongrass; [9])	Johnsongrass plant response rating (johnsongrass; 500 g ai/ha)	Plant response rating, Lambsquarters (lambsquarters; [9])	Lambsquarters plant response rating (lambsquarters; 500 g ai/ha)	Plant response rating, Morningglory (morningglory [2]; [9])	Morningglory plant response rating (morningglory [2]; 500 g ai/ha)	Plant response rating, Velvetleaf (velvetleaf; [10])	Plant response rating, Velvetleaf (velvetleaf; [11])	Velvetleaf plant response rating (velvetleaf; 500 g ai/ha)	Sedge, Umbrella plant response rating [3, 19]	Plant response rating, Sedge, Umbrella [3, 20]	Barnyardgrass plant response rating (barnyardgrass; [17])	Barnyardgrass plant response rating (barnyardgrass; [19])	also measured
CCNC(=O)c1cc(C)nc(NC(=O)c2cc(C(C)(C)C)nn2CC)c1 [Compound 149]	40	65	100	30	60	65	10	60	100	95	95	5	60	0	0	60	–	–	–	–	Foxtail, Giant plant response rating (giant foxtail; [6]): 70; Morningglory plant response rating (morningglory [1]; [6]): 30; Plant response rating, Rice (rice; 500 g ai/ha, visual rating 0-100, 0 no effect, 100 complete control): 30; Plant response rating, Rice (rice; [8]): 20; Plant response rating, Lambsquarters (lambsquarters; 62 g ai/ha, scale 0 to 100): 75; Plant response rating, Morningglory (morningglory [2]; 62 g ai/ha, scale 0 to 100): 0
CCn1nc(C(C)(C)C)cc1C(=O)Nc1cc(C(=O)N2CCCC2)ccc1F [Compound 242]	–	–	–	–	–	–	65	95	–	–	–	0	–	100	–	–	85	85	15	90	Rice plant response rating (0 to 100 scale) (rice; [12]): 50; Plant response rating, Rice (rice; [13]): 80; Plant response rating, Johnsongrass (johnsongrass; 250 g ai/ha, scale 0-100): 100; Plant response rating, Johnsongrass (johnsongrass; [14]): 100; Plant response rating, Morningglory (morningglory [2]; 62 g ai/ha, scale 0 to 100): 0; Plant response rating, Morningglory (morningglory [2]; 250 g ai/ha, scale 0-100): 0; Plant response rating, Morningglory (morningglory [2]; [14]): 15; Plant response rating, Velvetleaf (velvetleaf; [15]): 100; Plant response rating, Velvetleaf (velvetleaf; [16]): 100; Sedge, Umbrella plant response rating [3, 17]: 45; Sedge, Umbrella plant response rating [3, 18]: 75; Barnyardgrass plant response rating (barnyardgrass; [18]): 75; Plant response rating, Barnyardgrass (barnyardgrass; [20]): 95
CCCn1nc(C(C)(C)C)cc1C(=O)Nc1cccc(C(=O)NCC)c1 [Compound 57]	–	–	–	–	–	–	–	65	85	100	100	0	25	–	0	100	–	–	–	–	Plant response rating, Rice (rice; [8]): 30; Plant response rating (0 = no effect, 100 = complete control), Johnsongrass (johnsongrass; 62 g ai/ha): 20; Plant response rating, Johnsongrass (johnsongrass; [21]): 80; Plant response rating (0 = no effect, 100 = complete control), Lambsquarters (lambsquarters; 62 g ai/ha): 100; Plant response rating, Lambsquarters (lambsquarters; [21]): 100; Plant response rating (0 = no effect, 100 = complete control), Morningglory (morningglory [2]; 62 g ai/ha): 0; Plant response rating, Morningglory (morningglory [2]; [21]): 25; Plant response rating (0 = no effect, 100 = complete control), Velvetleaf (velvetleaf; 62 g ai/ha, preemergence): 0; Plant response rating, Velvetleaf (velvetleaf; 250 g ai/ha, scale 0 to 100 (0 no effect, 100 complete control), visual, 12 to 14 days, preemergence): 100
CC(=NO)c1cccc(NC(=O)c2cc(C(C)(C)C)nn2C)c1 [Compound 102]	45	65	85	35	55	90	–	80	100	70	100	70	80	–	20	60	70	80	10	50	Foxtail, Giant plant response rating (giant foxtail; [6]): 60; Morningglory plant response rating (morningglory [1]; [6]): 65; Plant response rating (0 = no effect, 100 = complete control), Johnsongrass (johnsongrass; 62 g ai/ha): 50; Plant response rating (0 = no effect, 100 = complete control), Lambsquarters (lambsquarters; 62 g ai/ha): 0; Plant response rating (0 = no effect, 100 = complete control), Morningglory (morningglory [2]; 62 g ai/ha): 30; Sedge, Umbrella plant response rating [3, 17]: 50; Sedge, Umbrella plant response rating [3, 22]: 70; Barnyardgrass plant response rating (barnyardgrass; [22]): 50; Plant response rating, Barnyardgrass (barnyardgrass; [20]): 70
CCn1nc(C(C)(C)C)cc1C(=O)Nc1cncc(C(=O)N(C)C)n1 [Compound 287]	40	90	100	20	15	50	55	85	–	100	–	–	–	40	–	–	70	75	0	0	Foxtail, Giant plant response rating (giant foxtail; [23]): 65; Morningglory plant response rating (morningglory [1]; [23]): 10; Rice plant response rating (0 to 100 scale) (rice; [12]): 80; Plant response rating, Rice (rice; [13]): 90; Plant response rating, Johnsongrass (johnsongrass; 250 g ai/ha, scale 0-100): 95; Plant response rating, Johnsongrass (johnsongrass; [14]): 95; Plant response rating, Lambsquarters (lambsquarters; 62 g ai/ha, scale 0 to 100): 100; Plant response rating, Lambsquarters (lambsquarters; 250 g ai/ha, scale 0-100): 100; Plant response rating, Lambsquarters (lambsquarters; [14]): 100; Plant response rating, Velvetleaf (velvetleaf; [15]): 100; Plant response rating, Velvetleaf (velvetleaf; [16]): 100; Sedge, Umbrella plant response rating ([3]; 62 g ai/ha, scale 0 to 100): 0; Sedge, Umbrella plant response rating [3, 18]: 35; Barnyardgrass plant response rating (barnyardgrass; [18]): 0; Plant response rating, Barnyardgrass (barnyardgrass; [20]): 25
